US9540647B2, “Methods and compositions for the treatment of cancer” (University of South Alabama, priority 2010, dated 2017)
Entries after “also recorded” stand apart in the source; their conditions may differ.

Columns and labels:
[1] = test system: OPN; assay: OPN expression in osteoblastic cells treated with cyclopamine (qRT-PCR, immunoblot); assay type: cell-based, human
Procedure: (§1) Quantitative RT-PCR (qRT-PCR)—cDNA was generated using High Capacity Reverse Transcriptase Kit (Applied Biosystems, Foster City, Calif.). Real time PCR was performed using a BioRad iQ5 Real-Time Detection system (Bio-Rad, Hercules, Calif.). All reactions were done in triplicate. OPN transcript levels were normalized to GAPDH levels (dCT) which was used to calculate changes in OPN expression (2-ddCT). […] The primers used included Sppl (OPN) (Mm 00436767_m1); Bglap (osteocalcin) (Mm 01741771_g1); IBSP (Mm 00492555_m1); PTHrP (Mm 00433057_m1); RANKL (Mm 00441906_m1); GAPDH (Mm 99999915_g1).

[2] = test system: pancreatic cancer; conditions: blockade of Hedgehog signaling, inhibiting EMT; cited from earlier work
[3] = test system: OPN; assay: OPN expression in RAW264.7 pre-osteoclasts in response to SHH; assay type: cell-based, murine; conditions: RAW264.7 cells
Procedure: Western Blotting Analysis—Whole cell lysates were collected in NP-40 buffer (150 mM NaCl, 50 mM Tris, 1% NP-40). Total protein (30 μg) was resolved by SDS-PAGE gel and transferred to PVDF membranes. Membranes were immunoblotted overnight at 4° C. with antibodies to either SHH (Santacruz, Calif., USA) or IHH (Santacruz). Equal loading was confirmed with anti-β-tubulin (Cell Signaling, Danvers, Mass.). To assess OPN expression upon SHH treatment, […] were grown in 6-well plates in the presence of SHH. After 24 hours the cells were lysed in NP-40 buffer and 30 μg of each experimental group assessed by immunoblotting. To assess for the expression of OPN, MMP9 and CTSK, at the end of Day 6 of differentiation, all the different experimental groups were kept in serum free medium for 24 hrs and both, the conditioned media and whole cell lysates were collected and immunoblotted using antibodies to either anti-mouse OPN (Millipore, Bedford, Mass.), or CTSK (SantaCruz Biotech). Equal loading was confirmed with anti-β-actin (Sigma) antibody. Secreted MMP9 (Santa Cruz Biotech) was assessed by loading equal quantity of protein from the serum-free conditioned medium. Corresponding HRP conjugated secondary antibodies were used for detection; blots were developed with SuperSignal enhanced chemiluminescence substrate (Pierce, Rockford, Ill.) and imaged using a Fuji LAS3000 imager. Detection and quantification of proteins was done using Fuji LAS 3000 apparatus and Multigauge V3.1 software (Fujifilm, Valhalla, N.Y.). Band intensities were measured in arbitrary Units (AU). […]
Luciferase Assay—Cells were co-transfected with the OPN promoter construct, pGL3-OPNB and pSV-β-galactosidase (Promega) (Das, S., et al. (2009) J Biol Chem 284, 22888-22897). […] Readings were normalized to β-galactosidase. […]
Quantitative RT-PCR (qRT-PCR)—cDNA was generated using High Capacity Reverse Transcriptase Kit (Applied Biosystems, Foster City, Calif.). […] Following the experimental regime as described herein (for Osteoclast differentiation/activity) RNA was isolated using Trizol (Invitrogen) and assessed as described herein. […]

[4] = test system: MC3T3-E1 pre-osteoblast cells; assay: Osteoblast differentiation and mineralization (ALP, Alizarin Red S, BSP, osteocalcin); assay type: cell-based, murine
Procedure: The procedure for differentiation of osteoblasts was standardized. MC3T3-E1 cells were cultured in the presence of ascorbic acid and β-glycerophosphate. Mineralization was examined by Alizarin RedS staining (Ueno, A., et al. (2001). Matrix Biol 20, 347-355; Lee, Y. K., et al. (2004). J Biomed Mater Res A 69, 188-195; Duarte, W. R., et al. (2003). S100A4: a novel negative regulator of mineralization and osteoblast differentiation. J Bone Miner Res 18, 493-501). Referring to FIG. 13 and FIG. 14, differentiation was evident by intense red staining in presence of differentiation medium and in differentiation medium containing SHH compared to the control, growth medium. This was also evident in the intensity of absorbance and in the numbers of mineralized nodules formed (counted under the microscope) (FIG. 15).
Induction of osteoblastic and osteoclastic differentiation—In order to test the effect of conditioned medium from the tumor cells on osteoblast differentiation, a double-strength differentiation medium (DM) was formulated for MC3T3 E1 Sc-14 cells. It comprised αMEM, 20% FBS, 50 μg/ml ascorbic acid and 20 mM β-glycerophosphate. Conditioned media and the double-strength DM were mixed in a 1:1 ratio. 1×DM was used as control. Similarly a double-strength differentiation medium was formulated for RAW 264.7 cell lines. It consisted of 20% FBS, 50 ng/ml of RANKL and 20 ng/ml of M-CSF added to the growth medium. Conditioned media from the tumor cells was mixed 1:1 with the double-strength DM. 1×DM was used as control. Osteoblast differentiation was assessed by alkaline phosphatase (ALP) activity assay in the perspective of total phosphatase. The functional assessment of osteoblast mineralization was quantified by staining with Alizarin Red S and scoring the number of mineralized nodules.
as §1

Molecule | OPN mRNA levels ([1]; hFOB cells, cyclopamine 5 μM, 10 μM, 20 μM) | expression of total OPN ([1]; osteoblastic cells in presence of cyclopamine) | secreted OPN ([1]; osteoblastic cells, cyclopamine 5, 10 and 20 μM, dose and time dependent) | expression of OPN transcript ([1]; osteoblastic cells, cyclopamine (20 μg/ml), real time PCR) | pancreatic cancer invasion and metastasis [2] | expression of OPN (immunoblot) ([3]; 24 hours post SHH treatment) | OPN promoter activity ([3]; 24 hours post-SHH treatment) | levels of OPN mRNA ([3]; recombinant SHH vs untreated) | alkaline phosphatase (ALP) activity, osteoblast differentiation ([4]; DM supplemented with 100 nM recombinant ligand vs DM alone) | mineralized nodules / Alizarin Red staining ([4]; DM with recombinant ligand vs DM alone, 14 days) | expression of BSP ([4]; in presence of SHH, 14 days) | expression of osteocalcin ([4]; in presence of SHH, 14 days)
CC1=C2C[C@H]3[C@@H](CC=C4C[C@@H](O)CC[C@@]43C)[C@@H]2CC[C@]12O[C@@H]1C[C@H](C)CN[C@H]1[C@H]2C [cyclopamine] | decreases OPN mRNA levels | decreased | decreased | decreased the expression of OPN transcript | suppressed pancreatic cancer invasion and metastasis |  |  |  |  |  |  | 
SHH: recombinant Sonic Hedgehog ligand (R & D Systems) |  |  |  |  |  | stimulates the expression of OPN | significantly (p<0.05) higher | significantly greater levels of OPN mRNA | promotes differentiation; also recorded: significantly greater | promote differentiation; also recorded: significantly greater number of mineralized nodules | significantly elevated | significantly elevated
